Measurements taken from patent US7666582B2, “IdeS, an IgG-degrading enzyme of Streptococcus pyogenes” (Hansa Medical Research AB, priority 2001, dated 2010).
Entries after “also recorded” stand apart in the source; their conditions may differ. Like-named read-outs stand apart in the source and are kept apart here. * marks the point of attachment. code Z = not defined here; CHN2 = [N-]=[N+]=C*

Key:
SpeB = SpeB (Streptococcus pyogenes, UniProt P0C0J0); conditions: cited from earlier work
S. pyogenes [1] = conditions: in vitro; cited from earlier work
S. pyogenes [2] = conditions: in vivo; cited from earlier work
IdeS [3] = assay: Proteinase inhibition assay (IgG cleavage by IdeS, SDS-PAGE); type: biochemical, S. pyogenes; conditions: 30 min preincubation, IdeS 0.3 μg/ml
Procedure: Partially purified IdeS (0.3 μg/ml) was incubated with either 20 nM iodoacetic acid, Z-LVG-CHN2 (Björck et al., 1989) at 0.4 mg/ml in 1% DMSO, or E64 (40 μM). The tubes were kept in the dark and incubated for 30 min at room temperature. As controls, IdeS was also kept in phosphate buffered saline (PBS) or in 1% DMSO, the solvent for Z-LVG-CHN2. After 30 min, 5 μl of 10 mg/ml IgG (Sigma) were added, and the volume was adjusted to 100 μl with PBS. Incubation was continued for 60 min at 37° C. The reaction was stopped by the addition of SDS-PAGE sample buffer and samples were analyzed by 12% SDS-PAGE.

[4] = test system: IgG-cleaving activity of S. pyogenes strain AP1 growth medium; assay: Cleavage of IgG in AP1 growth medium with E64 added; type: biochemical; conditions: E64 added to the AP1 growth medium, TH medium with 10% human plasma
papain = target: T1, papain (Carica papaya, UniProt P00784); conditions: cited from earlier work
T1 sequence (P00784 134-345): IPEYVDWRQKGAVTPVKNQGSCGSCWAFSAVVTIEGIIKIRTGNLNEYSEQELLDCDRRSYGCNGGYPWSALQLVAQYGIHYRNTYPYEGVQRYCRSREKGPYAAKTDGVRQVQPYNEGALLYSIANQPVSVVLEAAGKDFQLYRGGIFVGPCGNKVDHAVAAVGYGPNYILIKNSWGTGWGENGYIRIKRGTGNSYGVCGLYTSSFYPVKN

IdeS [5] = assay: Inhibition of IdeS activity by IgG-binding streptococcal proteins; type: biochemical, S. pyogenes

Row | Compound | inhibition of the proteolytic activity of SpeB (SpeB) | inhibition of streptococcal growth (S. pyogenes [1]) | inhibition of streptococcal growth (S. pyogenes [2]) | also measured
1 | CC(C)C[C@H](NC(=O)[C@H]1O[C@@H]1C(=O)O)C(=O)NCCCCN=C(N)N (relative stereo) [E64, trans-epoxysuccinyl-L-leucylamido-(4-Guanidino) butane] | efficiently blocked; also recorded: irreversibly block the proteolytic activity of SpeB | only Z-LVG-CHN2 inhibited streptococcal growth | only Z-LVG-CHN2 inhibited streptococcal growth | inhibition of the activity of IdeS (IgG cleavage) (IdeS [3]; E64 (40 μM)): had no effect on the enzyme; also recorded: not affected; inhibition of the cleavage of IgG (31 kDa product) [4]: did not inhibit the cleavage of IgG
2 | Z-LVG-CHN2: peptide derivate based on the inhibitory reactive site of cystatin C, carrying a diazomethyl ketone group ({code Z}-Leu-Val-Gly-CHN2; reading uncertain) | irreversibly inhibit; also recorded: irreversibly block the proteolytic activity of SpeB | inhibited streptococcal growth | inhibited streptococcal growth | inhibition of the activity of IdeS (IgG cleavage) (IdeS [3]; Z-LVG-CHN2 at 0.4 mg/ml in 1% DMSO): efficiently inhibited the activity of IdeS; also recorded: is inhibited; inhibition of papain (papain): irreversibly inhibit
3 | protein G: streptococcal protein that binds the Cγ2-Cγ3 interphase region of IgG |  |  |  | inhibition of IdeS activity (IdeS [5]): cannot inhibit IdeS activity
4 | O=C(O)CI [iodoacetic acid] |  |  |  | inhibition of the activity of IdeS (IgG cleavage) (IdeS [3]; 20 nM iodoacetic acid): efficiently inhibited the activity of IdeS
